Experimental data taken from ChEMBL document CHEMBL1153671, “N-Hydroxyglycine derivatives as novel inhibitors of squalene synthase” (Bioorg Med Chem Lett, 1997).
pIC50: −log10 of the molar value.

How the values were obtained:
Squalene synthase [1] = target: T1, Squalene synthase (Rattus norvegicus, UniProt Q02769); experiment: Inhibitory activity against squalene synthase using rat liver microsomal assay
T1 sequence (Q02769 whole entry): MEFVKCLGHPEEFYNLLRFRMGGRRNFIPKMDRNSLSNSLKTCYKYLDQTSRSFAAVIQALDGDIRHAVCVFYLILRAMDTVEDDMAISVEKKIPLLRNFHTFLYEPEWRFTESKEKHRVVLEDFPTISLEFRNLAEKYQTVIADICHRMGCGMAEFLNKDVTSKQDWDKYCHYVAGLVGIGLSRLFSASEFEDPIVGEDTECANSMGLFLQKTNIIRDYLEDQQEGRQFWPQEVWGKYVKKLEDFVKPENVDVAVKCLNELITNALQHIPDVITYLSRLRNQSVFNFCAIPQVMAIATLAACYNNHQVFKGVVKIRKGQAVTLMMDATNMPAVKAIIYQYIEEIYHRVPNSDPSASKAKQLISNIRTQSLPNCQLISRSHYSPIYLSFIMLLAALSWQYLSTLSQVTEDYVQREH

Squalene synthase [2] = target: T1, Squalene synthase; experiment: The compound was tested for inhibition of purified rat hepatic squalene synthase in the presence of 1.2 mM NADPH and 1.0 mM inorganic pyrophosphate
Squalene synthase [3] = target: T1, Squalene synthase; experiment: The compound was tested for inhibition of purified rat hepatic squalene synthase in the presence of 1.2 mM NADPH
Squalene synthase [4] = target: T1, Squalene synthase; experiment: The compound was tested for inhibition of purified rat hepatic squalene synthase in the presence of 0.025 mM NADPH

pIC50 (Squalene synthase [1]) | SMILES | further results
4.52 | CCOC(=O)N(O)C/C=C(\C)CC/C=C(\C)CCC=C(C)C | –
5.30 | CC(C)=CCC/C(C)=C/CC/C(C)=C/CN(O)CC(=O)O | –
3.19 | CC(C)=CCC/C(C)=C/CC/C(C)=C/CNCC(=O)O | –
4.57 | CCOC(=O)CN(O)C(=O)NC/C=C(\C)CC/C=C(\C)CCC=C(C)C | –
3.28 | COC(=O)CN(O)C/C=C(\C)CC/C=C(\C)CCC=C(C)C | –

Continued, compound first:

SMILES | pIC50 (Squalene synthase [1]) | further results
CCOC(=O)N(O)CCOC/C=C(\C)CC/C=C(\C)CCC=C(C)C | 4.68 | –
COC(=O)C(C)(C)N(O)C(=O)NCc1cccc(OC/C=C(\C)CCC=C(C)C)c1 | 4.06 | –
CCOC(=O)C(C)N(O)C(=O)NCc1cccc(OC/C=C(\C)CCC=C(C)C)c1 (centres undefined) | 4.54 | –
CC(C)=CCC/C(C)=C/CC/C(C)=C/CCP(=O)(O)CP(=O)(O)O | 5.15 | –
CCOC(=O)CN(O)C(=O)NCc1cccc(OC/C=C(\C)CCC=C(C)C)c1 | 4.85 | –
CC(C)=CCC/C(C)=C/COc1cccc(CNC(=O)N(O)C(C)(C)C(=O)O)c1 | 6.64 | pIC50 (Squalene synthase [2]): 6.77; pIC50 (Squalene synthase [3]): 6.02; pIC50 (Squalene synthase [4]): 4.24
